Experimental data as given in patent US11878978B1, “Pyrrolo[2,3-c]quinoline compounds as CK2 inhibitors” (KING FAISAL UNIVERSITY, priority 2023, dated 2024).

What was measured:
[1] = test system: PC3 (prostate); experiment: In vitro cytotoxic activity assay (MTT), PC3; assay type: cell-based; details: Homo sapiens, Prostate cell; PC3 (prostate) cells, exposed for 96 hours; read-out: IC50, concentration of compound eliciting a 50% inhibition of cell proliferation
Procedure: (§1) Compounds 1-12 were screened for their in vitro cytotoxic activity utilizing a 3-(4,5-dimethyl-thiazol-2-yl)-2,5-diphenyltetrazolium bromide (MTT) assay against selected cancer human cell lines consisting of PC3 (prostate), HCT116 (colon), A375 (melanoma), H1299 (lung), MIAPaCa-2 (pancreas), HL60 (leukemia), MCF7 (breast), MDA-MB-231 (breast) (T. Mosmann, J. Immunol. Meth., 1983, 65, 55-63). The cells were cultured at 37° C. in RMPI1640 medium supplemented with 10% fetal bovine serum, 50 IU/mL penicillin, and 50 μg/mL streptomycin in a 5% CO2 incubator. All cells were sub-cultured 3 times/week by trypsinisation. Viable cells were seeded and allowed to adhere for 12 h before a test drug was added in 96-well plates at an initial density of 1.0×10^5 cells/mL. Tumour cell lines were separately exposed to various concentrations of the tested compounds followed by incubation at a temperature of 37° C. during 96 h inside a medium of fresh RMPI 1640. Cells were subsequently incubated at 37° C. using MTT at 0.5 mg/mL during 4 h. After removal of supernatant, formazan crystals were dissolved in isopropanol and the optical density was measured at 570 nm. CX-4945 was used as a positive control.

[2] = target: T1, recombinant human CK2 (Homo sapiens, UniProt P68400); experiment: CK2 Kinase Assay (33P-ATP, substrate peptide RRRDDDSDDD); assay type: biochemical; details: final ATP concentration 15 μM, 10 min at 30° C., eight concentrations; read-out: protein kinase CK2 IC50
T1 construct: purchased Millipore
Procedure: CK2 Kinase Assay was conducted using the protocol as described in Pierre F. et al; J. Med. Chem. 2011, 54, 635-654. The tested compounds in aqueous solution were added at a volume of 10 μL to a reaction mixture comprising 10 μL of assay dilution buffer (ADB; 20 mM MOPS, pH 7.2, 25 mM β-glycerol phosphate, 5 mM EGTA, 1 mM sodium orthovanadate, and 1 mM dithiothreitol), 10 μL of substrate peptide (RRRDDDSDDD, dissolved in ADB at a concentration of 1 mM), 10 μL of recombinant human CK2 (RROP-holoenzyme, 25 ng dissolved in ADB; Millipore). Reactions were initiated by the addition of 10 μL of ATP solution (90% 75 mMMgCl2, 75 μM ATP (final ATP concentration:15 μM) dissolved in ADB; 10% [γ-33P] ATP (stock 1 mCi/100 μL; 3000 Ci/mmol (Perkin-Elmer) and maintained for 10 min at 30° C. The reactions were quenched with 100 μL of 0.75% phosphoric acid and then transferred to and filtered through a phosphor cellulose filter plate (Millipore). After washing each well five times with 0.75% phosphoric acid, the plate was dried under vacuum for 5 min and, following the addition of 15 μL of scintillation fluid to each well, the residual radioactivity was measured using a Wallac luminescence counter. The IC50 values were derived from eight concentrations of test inhibitors.

[3] = test system: MIAPaCa-2 (pancreas); experiment: In vitro cytotoxic activity assay (MTT), MIAPaCa-2; assay type: cell-based; details: Homo sapiens, MIA PaCa-2; MIAPaCa-2 (pancreas) cells, exposed for 96 hours; read-out: IC50, concentration of compound eliciting a 50% inhibition of cell proliferation
Procedure: as §1

[4] = test system: MDA-MB-231 (breast); experiment: In vitro cytotoxic activity assay (MTT), MDA-MB-231; assay type: cell-based; details: Homo sapiens; MDA-MB-231 (breast) cells, exposed for 96 hours; read-out: IC50, concentration of compound eliciting a 50% inhibition of cell proliferation
Procedure: as §1

[5] = test system: HL60 (leukemia); experiment: In vitro cytotoxic activity assay (MTT), HL60; assay type: cell-based; details: Homo sapiens, HL-60; HL60 (leukemia) cells, exposed for 96 hours; read-out: IC50, concentration of compound eliciting a 50% inhibition of cell proliferation
Procedure: as §1

[6] = test system: H1299 (lung); experiment: In vitro cytotoxic activity assay (MTT), H1299; assay type: cell-based; details: Homo sapiens, NCI-H1299; H1299 (lung) cells, exposed for 96 hours; read-out: IC50, concentration of compound eliciting a 50% inhibition of cell proliferation
Procedure: as §1

[7] = test system: HCT116 (colon); experiment: In vitro cytotoxic activity assay (MTT), HCT116; assay type: cell-based; details: Homo sapiens, HCT-116; HCT116 (colon) cells, exposed for 96 hours; read-out: IC50, concentration of compound eliciting a 50% inhibition of cell proliferation
Procedure: as §1

[8] = test system: A375 (melanoma); experiment: In vitro cytotoxic activity assay (MTT), A375; assay type: cell-based; details: Homo sapiens, A-375; A375 (melanoma) cells, exposed for 96 hours; read-out: IC50, concentration of compound eliciting a 50% inhibition of cell proliferation
Procedure: as §1

[9] = test system: MCF7 (breast); experiment: In vitro cytotoxic activity assay (MTT), MCF7; assay type: cell-based; details: Homo sapiens; MCF7 (breast) cells, exposed for 96 hours; read-out: IC50, concentration of compound eliciting a 50% inhibition of cell proliferation
Procedure: as §1

T1 sequence (P68400 whole entry): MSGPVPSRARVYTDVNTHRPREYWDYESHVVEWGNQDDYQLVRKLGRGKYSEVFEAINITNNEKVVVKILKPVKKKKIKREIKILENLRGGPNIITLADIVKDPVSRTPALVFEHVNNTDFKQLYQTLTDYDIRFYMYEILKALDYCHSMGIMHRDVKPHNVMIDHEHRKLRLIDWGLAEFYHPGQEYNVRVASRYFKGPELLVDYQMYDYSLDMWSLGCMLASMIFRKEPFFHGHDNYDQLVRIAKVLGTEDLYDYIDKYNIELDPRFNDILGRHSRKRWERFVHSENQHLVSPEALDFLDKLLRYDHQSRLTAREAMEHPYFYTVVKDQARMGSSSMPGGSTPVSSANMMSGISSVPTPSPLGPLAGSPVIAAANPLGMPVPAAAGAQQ
T1 sequence (P67870 whole entry partner): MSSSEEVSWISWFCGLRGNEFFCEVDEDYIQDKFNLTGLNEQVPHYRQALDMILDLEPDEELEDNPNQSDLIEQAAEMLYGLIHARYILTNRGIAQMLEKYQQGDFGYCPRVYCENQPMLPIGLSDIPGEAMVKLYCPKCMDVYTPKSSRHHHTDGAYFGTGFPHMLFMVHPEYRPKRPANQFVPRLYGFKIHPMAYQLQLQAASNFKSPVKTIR

O=C(O)c1ccc2c(c1)nc(Nc1cccc(Cl)c1)c1[nH]cc(C(=O)O)c12 [Compound 1, 4-((3-chlorophenyl)amino)-3H-pyrrolo[2,3-c]quinoline-1,7-dicarboxylic acid]
IC50 [1]: 1300 nM | IC50 [2]: 35 nM | IC50 [3]: 1400 nM | IC50 [4]: 4600 nM | IC50 [5]: 3100 nM | IC50 [6]: 1900 nM | IC50 [7]: 1700 nM | IC50 [8]: 2200 nM | IC50 [9]: 6200 nM
